Data: patent US5817818A, “Androstenones” (Glaxo Wellcome Inc., priority 1996, dated 1998)
Where two headings read alike, the source gives them in different places.

Legend:
Assay type in all cases: biochemical
Human Adrenal 3BHSD = target: T1, Human Adrenal 3BHSD (Homo sapiens, UniProt P26439); assay: Inhibition of human adrenal 3β-hydroxy-Δ^5-steroid dehydrogenase/3-keto-Δ^5-steroid isomerase (3BHSD) (microsomes; DHEA to androstenedione conversion); conditions: 1 mM NAD+, pH 7.5, 1 to 60 minutes
T1 construct: microsomes derived from human adrenal tissues; from tissue; host or cells: human adrenal tissue, microsomes
T1 sequence (P26439 1-372): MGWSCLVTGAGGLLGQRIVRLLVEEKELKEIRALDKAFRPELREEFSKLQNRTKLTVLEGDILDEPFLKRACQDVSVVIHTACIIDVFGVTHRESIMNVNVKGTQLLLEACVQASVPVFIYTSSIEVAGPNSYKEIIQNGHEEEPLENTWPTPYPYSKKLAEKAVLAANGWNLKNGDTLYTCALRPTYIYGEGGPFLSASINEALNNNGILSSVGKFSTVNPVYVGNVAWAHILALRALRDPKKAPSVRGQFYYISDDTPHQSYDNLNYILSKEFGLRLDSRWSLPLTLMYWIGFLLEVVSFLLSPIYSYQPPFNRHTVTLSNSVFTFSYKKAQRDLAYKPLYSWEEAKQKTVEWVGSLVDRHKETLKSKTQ
Protocol: Enzyme activities are measured using microsomes derived from human adrenal tissues. Microsomes were prepared by homogenization of the tissue followed by differential centrifugation of the homogenate. Microsome extracts were incubated with varying concentrations of dehydroepiandrosterone (DHEA), 1 mM NAD+, and varying amounts of the compounds of Formula (I), i.e. a test compound, in pH 7.5 buffer for a period of time within the range of 1 to 60 minutes. Corresponding incubations were carried out with no test compound as a control study. The percentage of conversion of DHEA to androstenedione in the presence of test compounds compared to the corresponding conversion in the control study was estimated using HPLC with radiochemical detection.

[1] = target: T2, human type 1 5α-reductase (Homo sapiens, UniProt P18405); assay: Inhibition of human type 1 steroid 5α-reductase (microsomes; testosterone to DHT conversion)
T2 construct: made in house; host or cells: Sf9 insect cells, recombinant baculovirus; microsomes
T2 sequence (P18405 1-259): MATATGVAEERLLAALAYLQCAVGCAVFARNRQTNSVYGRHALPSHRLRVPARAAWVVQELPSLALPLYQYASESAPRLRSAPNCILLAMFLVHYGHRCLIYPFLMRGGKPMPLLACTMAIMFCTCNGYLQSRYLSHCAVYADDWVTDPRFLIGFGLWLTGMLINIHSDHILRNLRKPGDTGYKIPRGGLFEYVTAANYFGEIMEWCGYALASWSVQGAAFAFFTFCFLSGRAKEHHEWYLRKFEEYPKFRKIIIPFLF
Protocol: (§1) Enzyme activities may be determined using microsomes derived from: 1) prostate tissue from benign prostatic hyperplasia (BPH) patients; 2) recombinant baculovirus infected SF9 cells that express human type 1 5α-reductase; or 3) recombinant baculovirus infected SF9 cells that express human type 2 5α-reductase. Microsomes were prepared by homogenization of the tissue or cells, followed by differential centrifugation of the homogenate. Microsome extracts were incubated with varying concentrations of [1,2,6,7-^3 H]-testosterone, 1 mM NADPH, and varying amounts of the compounds of formula (I,) i.e. a test compound, in buffer containing a NADPH regenerating system capable of maintaining NADPH concentrations for a period of time within the range 0.5-240 minutes. Corresponding incubations were carried out with no test compound as a control study.
(§2) For type 1 IC50 measurements, assay components except testosterone were preincubated for 10 minutes at pH 7.0, and following the addition of 100 nM testosterone the assays were allowed to proceed for 10-120 minutes. For type 2 IC50 measurements, assay components except testosterone were preincubated for 20 minutes at pH 6.0, and following the addition of 8 nM testosterone the assays were allowed to proceed for 20-40 minutes. The percentage of conversion of testosterone to DHT in the presence of test compounds compared to the corresponding conversion in the control study was estimated using high performance liquid chromatography (HPLC) with radiochemical detection.

[2] = target: T3, human type 2 5α-reductase (Homo sapiens, UniProt P31213); assay: Inhibition of human type 2 steroid 5α-reductase (microsomes; testosterone to DHT conversion); conditions: 20 min preincubation, pH 6.0, 8 nM testosterone, 20-40 min, 1 mM NADPH; read-out: IC50 Human Type 2 5AR
T3 construct: made in house; host or cells: Sf9 insect cells, recombinant baculovirus; microsomes
T3 sequence (P31213 1-254): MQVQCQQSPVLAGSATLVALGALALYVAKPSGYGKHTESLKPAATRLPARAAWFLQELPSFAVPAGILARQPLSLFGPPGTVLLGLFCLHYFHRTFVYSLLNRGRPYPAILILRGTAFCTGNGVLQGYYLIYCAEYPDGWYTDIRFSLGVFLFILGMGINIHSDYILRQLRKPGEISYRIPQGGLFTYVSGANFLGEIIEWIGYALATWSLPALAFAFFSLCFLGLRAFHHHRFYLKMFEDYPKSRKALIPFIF
Protocol: as §1, §2

[3] = 10 min preincubation, pH 7.0, 100 nM testosterone, 10-120 min, 1 mM NADPH, read-out: IC50 Human Type 1 5AR

| Compound | Ki (Human Adrenal 3BHSD) [nM] | IC50 [1, 3] [nM] | IC50 [2] [nM] | IC50 [1] [nM] |
| --- | --- | --- | --- | --- |
| C[C@]12CCC(=O)N[C@@H]1CC[C@@H]1[C@@H]2CC[C@]2(C)[C@@H](C(=O)NC3(c4ccc(Cl)cc4)CCCC3)CC[C@@H]12 [Compound 1, 17β-N-1-(4-Chlorophenyl)cyclopentylcarbamoyl-4-aza-5α-androstan-3-one] | > 1000 | 1 to 10 | < 1 |  |
| CN1C(=O)CC[C@]2(C)[C@H]3CC[C@]4(C)[C@@H](C(=O)NC5(c6ccc(Cl)cc6)CCCC5)CC[C@H]4[C@@H]3CC[C@@H]12 [Compound 2, 17β-N-1-(4-Chlorophenyl)cyclopentylcarbamoyl-4-methyl-4-aza-5α-androstan-3-one] | 10 to 10000 | < 1 | < 1 |  |
| C[C@]12C=CC(=O)N[C@@H]1CC[C@@H]1[C@@H]2CC[C@]2(C)[C@@H](C(=O)NC3(c4ccc(Cl)cc4)CCCC3)CC[C@@H]12 [Compound 3, 17β-N-1-(4-chlorophenyl)cyclopentylcarbamoyl-4-aza-5α-androst-1-en-3-one] | > 1000 |  | < 1 | < 1 |
| CC(C)(C)c1ccc(C2(NC(=O)[C@H]3CC[C@H]4[C@@H]5CC[C@H]6NC(=O)C=C[C@]6(C)[C@H]5CC[C@]34C)CCCC2)cc1 [Compound 4, 17β-N-1-(4-t-Butylphenyl)cyclopentylcarbamoyl-4-aza-5α-androst-1-en-3-one] | > 1000 | 1 to 10 | < 1 |  |
| CC(C)(C)c1ccc(C2(NC(=O)[C@H]3CC[C@H]4[C@@H]5CC[C@H]6NC(=O)C=C[C@]6(C)[C@H]5CC[C@]34C)CCCCC2)cc1 [Compound 5, 17β-N-1-(4-t-Butylphenyl)cyclohexylcarbamoyl-4-aza-5α-androst-1-en-3-one] | > 1000 | 1 to 10 | < 1 |  |
| C[C@]12C=CC(=O)N[C@@H]1CC[C@@H]1[C@@H]2CC[C@]2(C)[C@@H](C(=O)NC3(c4ccc(Cl)cc4)CCCCC3)CC[C@@H]12 [Compound 6, 17β-N-1-(4-Chlorophenyl)cyclohexylcarbamoyl-4-aza-5α-androst-1-en-3-one] | > 1000 | 1 to 10 | < 1 |  |
| C[C@]12C=CC(=O)N[C@@H]1CC[C@@H]1[C@@H]2CC[C@]2(C)[C@@H](C(=O)NC3(c4ccc(C(F)(F)F)cc4)CCCC3)CC[C@@H]12 [Compound 7, 17β-N-1-(4-Trifluoromethylphenyl)cyclopentylcarbamoyl-4-aza-5α-androst-1-en-3-one] | > 1000 | 1 to 10 | < 1 |  |
| COc1ccc(C2(NC(=O)[C@H]3CC[C@H]4[C@@H]5CC[C@H]6NC(=O)C=C[C@]6(C)[C@H]5CC[C@]34C)CCCC2)cc1 [Compound 8, 17β-N-1-(4-Methoxyphenyl)cyclopentylcarbamoyl-4-aza-5α-androst-1-en-3-one] | > 1000 | 1 to 10 | < 1 |  |
| C[C@]12C=CC(=O)N[C@@H]1CC[C@@H]1[C@@H]2CC[C@]2(C)[C@@H](C(=O)NC3(c4ccc(F)cc4)CCCC3)CC[C@@H]12 [Compound 9, 17β-N-1-(4-Fluorophenyl)cyclopentylcarbamoyl-4-aza-5α-androst-1-en-3-one] | > 1000 | 1 to 10 | < 1 |  |
| C[C@]12C=CC(=O)N[C@@H]1CC[C@@H]1[C@@H]2CC[C@]2(C)[C@@H](C(=O)NC3(c4ccc(F)cc4)CCCCC3)CC[C@@H]12 [Compound 10, 17β-N-1-(4-Fluorophenyl)cyclohexylcarbamoyl-4-aza-5α-androst-1-en-3-one] | > 1000 | 1 to 10 | < 1 |  |
| COc1ccc(C2(NC(=O)[C@H]3CC[C@H]4[C@@H]5CC[C@H]6NC(=O)C=C[C@]6(C)[C@H]5CC[C@]34C)CCCCC2)cc1 [Compound 11, 17β-N-1-(4-Methoxyphenyl)cyclohexylcarbamoyl-4-aza-5α-androst-1-en-3-one] | > 1000 | 1 to 10 | < 1 |  |
| C[C@]12C=CC(=O)N[C@@H]1CC[C@@H]1[C@@H]2CC[C@]2(C)[C@@H](C(=O)NC3(c4ccc5c(c4)OCO5)CCCCC3)CC[C@@H]12 [Compound 12, 17β-N-1-(3,4-Methylenedioxyphenyl)cyclohexylcarbamoyl-4-aza-5α-androst-1-en-3-one] | 10 to 10000 | 10 to 10000 | < 1 |  |
| CC(C)(C)c1ccc(C2(NC(=O)[C@H]3CC[C@H]4[C@@H]5CC[C@H]6NC(=O)C=C[C@]6(C)[C@H]5CC[C@]34C)CCCCCC2)cc1 [Compound 13, 17β-N-1-(4-t-Butylphenyl)cycloheptylcarbamoyl-4-aza-5α-androst-1-en-3-one] | > 1000 | 1 to 10 | < 1 |  |
| CC(C)(C)c1ccc(C2(NC(=O)[C@H]3CC[C@H]4[C@@H]5CC[C@H]6NC(=O)C=C[C@]6(C)[C@H]5CC[C@]34C)CCOCC2)cc1 [Compound 14, 17β-N-4-(4-t-Butylphenyl)tetrahydropyranylcarbamoyl-4-aza-5α-androst-1-en-3-one] | > 1000 | 1 to 10 | < 1 |  |
| C[C@]12C=CC(=O)N[C@@H]1CC[C@@H]1[C@@H]2CC[C@]2(C)[C@@H](C(=O)NC3(c4ccc(Cl)cc4Cl)CC3)CC[C@@H]12 [Compound 15, 17β-N-1-(2,4-Dichlorophenyl)cyclopropylcarbamoyl-4-aza-5α-androst-1-en-3-one] | > 1000 | 1 to 10 | < 1 |  |
| CCC1(CC)CC1(NC(=O)[C@H]1CC[C@H]2[C@@H]3CC[C@H]4NC(=O)C=C[C@]4(C)[C@H]3CC[C@]12C)c1ccc(C(F)(F)F)cc1 (stereo partly drawn) [Compound 16, 17β-N-1-(4-Trifluoromethylphenyl)-2,2-diethylcyclopropylcarbamoyl-4-aza-5α-androst-1-en-3-one] | > 1000 | 1 to 10 | < 1 |  |
| CC1(C)CCC(NC(=O)[C@H]2CC[C@H]3[C@@H]4CC[C@H]5NC(=O)C=C[C@]5(C)[C@H]4CC[C@]23C)(c2ccc(C(C)(C)C)cc2)CC1 [Compound 17, 17β-N-1-(4-t-Butylphenyl)-4,4-dimethylcyclohexylcarbamoyl-4-aza-5α-androst-1-en-3-one] | > 1000 | < 1 | < 1 |  |
| CC(C)(C)c1ccc(C2(NC(=O)[C@H]3CC[C@H]4[C@@H]5CC[C@H]6NC(=O)C=C[C@]6(C)[C@H]5CC[C@]34C)CCC(C(C)(C)C)CC2)cc1 (stereo partly drawn) [Compound 18, 17β-N-1-(4-t-Butylphenyl)-4-t-Butylcyclohexylcarbamoyl-4-aza-5α-androst-1-en-3-one] | > 1000 | 1 to 10 | < 1 |  |
| C[C@]12C=CC(=O)N[C@@H]1CC[C@@H]1[C@@H]2CC[C@]2(C)[C@@H](C(=O)NC3(c4cccc(C(F)(F)F)c4)CCCC3)CC[C@@H]12 [Compound 19, 17β-N-1-(3-Trifluoromethylphenyl)cyclopentylcarbamoyl-4-aza-5α-androst-1-en-3-one] | > 1000 | 1 to 10 | < 1 |  |
| CC(C)(C)c1ccc(C2(NC(=O)[C@H]3CC[C@H]4[C@@H]5CC[C@H]6NC(=O)C=C[C@]6(C)[C@H]5CC[C@]34C)CCSCC2)cc1 [Compound 20, 17β-N-4-(4-t-Butylphenyl)tetrahydrothiopyranylcarbamoyl-4-aza-5α-androst-1-en-3-one] | > 1000 | < 1 | < 1 |  |
